Tests used:
[1] = system: nerve cells prepared from lymnaea; experiment: Extracellular recording before and after Carbachol administration; normal distribution of standard deviations (mean value, half-width); assay type: cell-based; details: 50-μM Carbachol
Excerpt: The normal distribution approximation unit 103 classifies a plurality of standard deviations obtained in the group SD calculation unit 102 into a plurality of classes set at predetermined widths. The classes are plotted on the X axis and the number of standard deviations classified into each class is plotted on the Y axis, to obtain a graph. The graph obtained is approximated to a normal distribution. Methods for approximating the graph to a normal distribution include, for example, various curve fitting analyses, such as exponential decrease, exponential increase, Gaussian, Lorentzian, Sigma, Multipeak and non-linear methods. The mean value/half-width calculation unit 106 calculates the mean value and half-width (the half-peak height width) of the normal distribution obtained.
The apparatus of the present embodiment thus configured was used to measure how the chemical substance Carbachol acts on nerve cells prepared from lymnaea. More specifically, the normal distribution approximation unit 103 produced a frequency distribution of the standard deviations on the basis of signals that were detected by the measurement unit 101 before and after Carbachol was administered to lymnaea nerve cells at 50-μM concentration. […]

[2] = system: nerve cells prepared from lymnaea; experiment: Extracellular recording of nerve cell electrical signals at a series of Carbachol concentrations; mean value of standard deviations; assay type: cell-based; details: concentrations 0-100, SD sampled every 100 ms from 10-second data, FIG. 10
Excerpt: FIG. 9 is a block diagram schematically illustrating a configuration of the apparatus for measuring the activity signals of biological samples according to Embodiment 3. The apparatus employs the apparatus of Embodiment 1 as a measurement unit (a signal source) 101, and has a function for processing electrical signals detected by the measurement unit 101. As shown in FIG. 9(A), the apparatus is provided with a group SD (standard deviation) calculation unit 102, a mean value calculation unit 105, an activation evaluation unit 120 and a data display unit 110. According to the group SD calculation unit 102, the standard deviation of one group consisting of a predetermined number of samples is calculated on the basis of time-series data detected by the measurement unit 101. […] According to the mean value calculation unit 105, the mean value of the obtained plurality of standard deviations is calculated. […] Therefore, according to the activation calculation unit 120, activation can be calculated based on the input information and can be classified by comparison with pre-stored information. […] According to the apparatus, noise can be removed from digital signals (predetermined time-series data) captured at a fixed sampling rate, and then significant signals showing, for example, the opening and closing of ion channels can be extracted, measured and classified. […]

With C[N+](C)(C)CCOC(N)=O [Carbachol] as the compound, how does the “effect on ion channels of the nerve cells” value ([1]; lymnaea nerve cells) read?
Its value is “activates the ion channels”.

What about the “mean value of the normal distribution of standard deviations after administration” value ([1]; SD every 5 ms from 10-second signals, before administration 0.478, FIG. 12) of the same compound?
The value was 0.703.

And the “Carbachol concentration at which the mean value of the standard deviations reaches its peak” value [2]?
Its value is 10 µM.
